Reference: US10912780B2, “Heterocyclic compounds useful as anti-bacterial agents and method for production thereof” (Bugworks Research, Inc., priority 2017, dated 2021)
pIC50: −log10 of the molar value. Converted amounts (≈) assume the structure as drawn.

Key:
[1] = tested on: Acinetobacter baumannii ATCC 19606; experiment: Minimum Inhibitory Concentration (MIC) in LB media; type: cell-based; conditions: Acinetobacter baumannii, ATCC19606;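 note: twofold compound dilutions from DMSO stocks in LB broth microplates, overnight incubation at 37 °C, growth read by absorbance at 600 nm, with DMSO and sterility controls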
E. coli DNA gyrase = E. coli DNA gyrase (Escherichia coli, UniProt P0AES4+P0AES6); experiment: biochemical; conditions: supercoiling assay
E. coli topoisomerase IV = E. coli topoisomerase IV (Escherichia coli, UniProt P0AFI2+P20083); experiment: biochemical; conditions: decatenation assay; read-out: E. coli Topo IV IC50
[2] = target: T1, human ether a go-go related gene (hERG) K+ channel (Homo sapiens, UniProt Q12809); experiment: hERG inhibition assay, QPatch HTX automated electrophysiology; type: cell-based; conditions: CHO cell line stably expressing hERG, whole-cell patch clamp, maximum test concentration 300 μM
T1 construct: Chinese Hamster Ovary cell line stably expressing the full-length hERG potassium channel; expressed in transfected cells
Method: The compounds were tested for inhibition of the human ether a go-go related gene (hERG) K+ channel using QPatch HTX automated electrophysiology.
Compounds were solubilised to 100 mM in DMSO before dilution in HBPS to 300 μM.
Electrophysiological recordings were made from a Chinese Hamster Ovary cell line stably expressing the full-length hERG potassium channel. Single cell ionic currents were measured in whole-cell patch clamp configuration at room temperature (21-23° C.) using the QPatch HTX platform (Sophion). Intracellular solution contained (mM): 120 KF, 20 KCl, 10 EGTA, 10 HEPES and was buffered to pH 7.3. […] Cells were clamped at a holding potential of −80 mV. […] This sweep was repeated 10 times at 10 s intervals. hERG currents were measured from the tail step and referenced to the holding current. Compounds were then incubated for 2 minutes prior to a second measurement of ion channel current using an identical pulse train.

[3] = tested on: Staphylococcus aureus ATCC 29213; experiment: Minimum Inhibitory Concentration (MIC) in LB media; type: cell-based; conditions: Staphylococcus aureus, ATCC29213, read-out: Minimum Inhibitory Concentration S. aureus ATCC 29213
From the text: (§1) The compounds of Formula (I) are of interest due to their potent antibacterial effects. The ability of the invention compounds disclosed herein to achieve an antibacterial effect may be evaluated with regard to their ability to inhibit the growth of bacterial species like Escherichia coli ATCC 25922, Staphylococcus aureus ATCC 29213, Klebsiella pneumoniae ATCC 13883, Acinetobacter baumannii ATCC 19606, Pseudomonas aeruginosa ATCC 27853, Enterococcus faecalis ATCC 29212 and Enterococcus faecalis ATCC 29212 using an assay based on the following Minimum Inhibitory Concentration (MIC) protocol:
(§2) The medium sterility is checked by incubating at 37° C. for a period of 48 h.
(§3) Bacterial cultures that are stored as glycerol stocks at −80° C. are sub cultured on LB agar plates to obtain isolated colonies. A single colony of each strain is cultured in LB broth. The cultures are incubated at 37 C, 200 rpm till they reach an optical density (OD at 600 nm) of 0.8 to 1. […] Test compounds are dissolved in dimethyl sulfoxide (DMSO) to a stock concentration of 4 mg/ml. A twofold dilution series of this DMSO stock is prepared in a 96 well V bottom microtitre plate from rows A to H. A 3 μL volume of these dilutions are transferred to a 96-well flat bottom microtitre assay plate. Controls to monitor the effects of DMSO and media sterility are included. Each well is inoculated with 150 μL of the above diluted culture. The plates are incubated at 37° C. overnight in a humidified incubator. The following morning, the plates are read using a Spectrophotometer at 600 nm wavelength. […] The antibacterial activity (MIC) determined against representative Gram positive (S. aureus, E. faecalis) and Gram negative (E.coli, -P. aeruginosa and A. baumannii) pathogen were reported Table 1.

[4] = tested on: Klebsiella pneumoniae ATCC 13883; experiment: Minimum Inhibitory Concentration (MIC) in LB media; type: cell-based; conditions: Klebsiella pneumoniae, ATCC13883, read-out: Minimum Inhibitory Concentration K. pneumoniae ATCC 13883
From the text: as §1, §2, §3

[5] = tested on: Pseudomonas aeruginosa ATCC 27853; experiment: Minimum Inhibitory Concentration (MIC) in LB media; type: cell-based; conditions: Pseudomonas aeruginosa, ATCC27853, read-out: Minimum Inhibitory Concentration P. aeruginosa ATCC 27853
From the text: as §1, §2, §3

[6] = tested on: Escherichia coli ATCC 25922; experiment: Minimum Inhibitory Concentration (MIC) in LB media; type: cell-based; conditions: Escherichia coli, ATCC25922, read-out: Minimum Inhibitory Concentration E. coli ATCC 25922
From the text: as §1, §2, §3

[7] = tested on: Enterococcus faecalis ATCC 29212; experiment: Minimum Inhibitory Concentration (MIC) in LB media; type: cell-based; conditions: Enterococcus faecalis, ATCC29212, read-out: Minimum Inhibitory Concentration E. faecalis ATCC 29212
From the text: as §1, §2, §3

E. coli topoisomerase IV, sequence (P20083 whole entry): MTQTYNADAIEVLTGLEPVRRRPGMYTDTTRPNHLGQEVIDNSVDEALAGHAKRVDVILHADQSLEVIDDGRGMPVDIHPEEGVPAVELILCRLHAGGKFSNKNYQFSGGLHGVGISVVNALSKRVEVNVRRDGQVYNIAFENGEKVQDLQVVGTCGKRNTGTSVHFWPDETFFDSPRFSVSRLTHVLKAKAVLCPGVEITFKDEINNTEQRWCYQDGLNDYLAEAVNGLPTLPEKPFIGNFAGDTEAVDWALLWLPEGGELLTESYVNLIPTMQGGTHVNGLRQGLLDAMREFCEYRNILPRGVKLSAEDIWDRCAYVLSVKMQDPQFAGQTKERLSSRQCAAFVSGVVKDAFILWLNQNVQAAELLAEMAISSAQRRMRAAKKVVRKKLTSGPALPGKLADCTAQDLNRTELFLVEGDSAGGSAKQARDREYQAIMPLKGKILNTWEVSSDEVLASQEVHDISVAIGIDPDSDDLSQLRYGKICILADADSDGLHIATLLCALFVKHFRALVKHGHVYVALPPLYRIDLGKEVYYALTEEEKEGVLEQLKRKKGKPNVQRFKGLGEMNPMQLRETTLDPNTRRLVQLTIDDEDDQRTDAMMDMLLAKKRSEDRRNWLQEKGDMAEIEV
E. coli topoisomerase IV, sequence (P0AFI2 whole entry): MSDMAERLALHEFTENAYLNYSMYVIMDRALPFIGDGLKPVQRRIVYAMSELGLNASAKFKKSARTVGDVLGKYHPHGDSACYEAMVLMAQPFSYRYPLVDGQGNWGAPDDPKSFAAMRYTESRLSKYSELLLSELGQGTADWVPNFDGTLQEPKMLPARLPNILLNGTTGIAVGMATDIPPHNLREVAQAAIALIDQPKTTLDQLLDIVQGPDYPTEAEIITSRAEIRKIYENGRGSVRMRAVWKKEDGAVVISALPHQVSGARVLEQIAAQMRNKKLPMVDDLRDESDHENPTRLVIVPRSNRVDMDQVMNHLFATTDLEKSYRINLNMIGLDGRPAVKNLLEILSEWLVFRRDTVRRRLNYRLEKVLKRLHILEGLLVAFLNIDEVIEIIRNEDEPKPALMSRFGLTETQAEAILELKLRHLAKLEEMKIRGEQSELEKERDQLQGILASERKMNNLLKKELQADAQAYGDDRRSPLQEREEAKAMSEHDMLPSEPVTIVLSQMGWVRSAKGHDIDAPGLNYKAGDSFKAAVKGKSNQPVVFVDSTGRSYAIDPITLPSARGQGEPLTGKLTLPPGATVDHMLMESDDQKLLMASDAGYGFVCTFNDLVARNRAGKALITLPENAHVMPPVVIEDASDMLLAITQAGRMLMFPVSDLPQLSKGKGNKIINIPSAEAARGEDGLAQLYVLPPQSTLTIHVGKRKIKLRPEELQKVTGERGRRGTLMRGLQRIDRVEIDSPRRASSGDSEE
T1 sequence (Q12809 whole entry): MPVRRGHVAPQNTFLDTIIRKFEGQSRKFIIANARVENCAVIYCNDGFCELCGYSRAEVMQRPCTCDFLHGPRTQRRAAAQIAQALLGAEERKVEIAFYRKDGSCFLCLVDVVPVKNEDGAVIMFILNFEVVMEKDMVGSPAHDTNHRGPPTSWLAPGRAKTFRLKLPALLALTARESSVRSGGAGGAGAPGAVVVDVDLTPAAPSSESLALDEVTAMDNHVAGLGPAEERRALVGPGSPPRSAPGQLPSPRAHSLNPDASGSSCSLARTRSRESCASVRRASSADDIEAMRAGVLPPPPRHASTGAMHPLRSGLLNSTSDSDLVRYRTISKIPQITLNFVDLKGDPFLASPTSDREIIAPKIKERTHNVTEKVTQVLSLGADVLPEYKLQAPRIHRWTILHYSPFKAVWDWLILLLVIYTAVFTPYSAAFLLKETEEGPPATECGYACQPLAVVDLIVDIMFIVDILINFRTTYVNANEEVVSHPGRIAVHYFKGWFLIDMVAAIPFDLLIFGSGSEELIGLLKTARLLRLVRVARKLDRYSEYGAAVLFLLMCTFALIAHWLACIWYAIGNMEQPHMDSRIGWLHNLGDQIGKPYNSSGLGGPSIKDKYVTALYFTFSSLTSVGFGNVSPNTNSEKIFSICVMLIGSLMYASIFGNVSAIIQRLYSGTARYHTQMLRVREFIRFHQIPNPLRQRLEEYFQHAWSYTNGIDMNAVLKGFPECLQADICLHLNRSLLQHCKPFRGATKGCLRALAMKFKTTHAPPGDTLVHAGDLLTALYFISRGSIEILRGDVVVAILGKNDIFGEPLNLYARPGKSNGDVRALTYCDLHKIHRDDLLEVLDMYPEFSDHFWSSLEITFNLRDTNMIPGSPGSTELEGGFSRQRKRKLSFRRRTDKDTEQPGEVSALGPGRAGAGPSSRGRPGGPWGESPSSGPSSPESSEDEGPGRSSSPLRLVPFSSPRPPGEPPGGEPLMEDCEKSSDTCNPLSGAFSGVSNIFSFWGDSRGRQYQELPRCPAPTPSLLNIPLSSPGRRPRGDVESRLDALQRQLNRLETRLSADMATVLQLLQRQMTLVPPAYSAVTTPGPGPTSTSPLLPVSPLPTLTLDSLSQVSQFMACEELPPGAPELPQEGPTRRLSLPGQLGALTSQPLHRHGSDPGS
E. coli DNA gyrase, sequence (P0AES4 whole entry, one chain of several): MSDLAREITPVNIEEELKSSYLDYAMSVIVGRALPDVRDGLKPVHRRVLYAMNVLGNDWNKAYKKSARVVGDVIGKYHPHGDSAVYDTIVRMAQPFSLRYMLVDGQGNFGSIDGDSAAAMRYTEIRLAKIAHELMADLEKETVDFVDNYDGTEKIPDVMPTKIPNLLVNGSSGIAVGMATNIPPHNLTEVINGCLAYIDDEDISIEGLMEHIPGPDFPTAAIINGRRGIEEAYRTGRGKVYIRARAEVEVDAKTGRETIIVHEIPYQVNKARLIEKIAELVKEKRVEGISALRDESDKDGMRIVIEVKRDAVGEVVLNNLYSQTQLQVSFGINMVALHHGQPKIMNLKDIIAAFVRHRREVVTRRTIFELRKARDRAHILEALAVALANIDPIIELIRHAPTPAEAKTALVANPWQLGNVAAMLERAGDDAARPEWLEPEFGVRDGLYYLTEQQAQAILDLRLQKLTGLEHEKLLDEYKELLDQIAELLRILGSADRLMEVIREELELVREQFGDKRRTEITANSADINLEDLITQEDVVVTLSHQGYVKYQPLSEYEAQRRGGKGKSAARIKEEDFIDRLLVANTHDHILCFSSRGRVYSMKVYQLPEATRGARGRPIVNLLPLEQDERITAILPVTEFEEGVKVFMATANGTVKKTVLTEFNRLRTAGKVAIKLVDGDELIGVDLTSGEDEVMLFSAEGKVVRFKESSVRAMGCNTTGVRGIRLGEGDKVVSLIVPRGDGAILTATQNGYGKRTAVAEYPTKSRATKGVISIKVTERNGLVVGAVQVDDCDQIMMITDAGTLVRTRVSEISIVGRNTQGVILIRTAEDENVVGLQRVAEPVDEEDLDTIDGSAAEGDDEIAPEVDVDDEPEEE

SMILES	MIC [1] [µg/mL]	pIC50 (E. coli DNA gyrase)	pIC50 (E. coli topoisomerase IV)	pIC50 [2]	MIC [3] [µg/mL]	MIC [4] [µg/mL]	MIC [5] [µg/mL]	MIC [6] [µg/mL]	MIC [7] [µg/mL]
Cn1c(=O)ccc2ccc(F)c(CCNC[C@H]3CN(c4ncc5c(n4)NC(=O)CO5)C(=O)O3)c21 [Example 16, (S)-2-(5-(((2-(7-fluoro-1-methyl-2-oxo-1,2-dihydroquinolin-8-yl)ethyl)amino)methyl)-2-oxooxazolidin-3-yl)-6H-pyrimido[5,4-b][1,4]oxazin-7(8H)-one]	0.25 (≈ 0.534 µM)	7.39	6.95	3.69	0.06 (≈ 0.128 µM)	0.25 (≈ 0.534 µM)	1 (≈ 2.13 µM)	0.06 (≈ 0.128 µM)	0.25 (≈ 0.534 µM)
Cn1c(=O)ccc2ccc(F)c(CCNC[C@H]3CN(c4ccc5c(n4)NC(=O)CO5)C(=O)O3)c21 [Example 8, (S)-6-(5-(((2-(7-fluoro-1-methyl-2-oxo-1,2-dihydroquinolin-8-yl)ethyl)amino)methyl)-2-oxooxazolidin-3-yl)-2H-pyrido[3,2-b][1,4]oxazin-3(4H)-one]	≤ 0.015	–	–	4.77	≤ 0.015	0.03 (≈ 0.0642 µM)	0.25 (≈ 0.535 µM)	0.03 (≈ 0.0642 µM)	0.06 (≈ 0.128 µM)
O=C1COc2ccc(N3C[C@H](CNCCc4c(F)ccc5ncc(=O)n(CCO)c45)OC3=O)nc2N1 [Example 9, (S)-6-(5-(((2-(6-fluoro-4-(2-hydroxyethyl)-3-oxo-3,4-dihydroquinoxalin-5-yl)ethyl)amino)methyl)-2-oxooxazolidin-3-yl)-2H-pyrido[3,2-b][1,4]oxazin-3(4H)-one]	0.06 (≈ 0.12 µM)	8.49	6.76	4.16	0.03 (≈ 0.0602 µM)	0.13 (≈ 0.261 µM)	1 (≈ 2.01 µM)	0.06 (≈ 0.12 µM)	0.125 (≈ 0.251 µM)
Cn1c(=O)ccc2ccc(F)c(CCCNC[C@@H]3CN(c4cnc5c(n4)NC(=O)CO5)C(=O)O3)c21 [Example 23, (R)-6-(5-(((3-(7-fluoro-1-methyl-2-oxo-1,2-dihydroquinolin-8-yl)propyl)amino)methyl)-2-oxooxazolidin-3-yl)-2H-pyrazino[2,3-b][1,4]oxazin-3(4H)-one]	0.015 (≈ 0.0311 µM)	8.31	7.43	4.46	0.015 (≈ 0.0311 µM)	0.03 (≈ 0.0622 µM)	0.25 (≈ 0.518 µM)	0.03 (≈ 0.0622 µM)	0.06 (≈ 0.124 µM)
Cn1c(=O)cnc2ccc(F)c(CCNC[C@H]3CN(c4ccc5c(n4)NC(=O)CO5)C(=O)O3)c21 [Example 4, (S)-6-(5-(((2-(6-fluoro-4-methyl-3-oxo-3,4-dihydroquinoxalin-5-yl)ethyl)amino)methyl)-2-oxooxazolidin-3-yl)-2H-pyrido[3,2-b][1,4]oxazin-3(4H)-one]	≤ 0.015	8.15	7.03	–	≤ 0.015	0.03 (≈ 0.064 µM)	0.25 (≈ 0.534 µM)	0.03 (≈ 0.064 µM)	0.06 (≈ 0.128 µM)
Cc1nc2ccc(F)c(CCNC[C@H]3CN(c4ccc5c(n4)NC(=O)CO5)C(=O)O3)c2n(C)c1=O [Example 6, (S)-6-(5-(((2-(6-fluoro-2,4-dimethyl-3-oxo-3,4-dihydroquinoxalin-5-yl)ethyl)amino)methyl)-2-oxooxazolidin-3-yl)-2H-pyrido[3,2-b][1,4]oxazin-3(4H)-one]	0.015 (≈ 0.0311 µM)	8.47	7.52	–	0.015 (≈ 0.0311 µM)	0.125 (≈ 0.259 µM)	1 (≈ 2.07 µM)	0.06 (≈ 0.124 µM)	0.125 (≈ 0.259 µM)
CN1C(=O)CCc2ccc(F)c(CCNC[C@@H]3CN(c4ccc5c(n4)NC(=O)CO5)C(=O)O3)c21 [Example 3, (R)-6-(5-(((2-(7-fluoro-1-methyl-2-oxo-1,2,3,4-tetrahydroquinolin-8-yl)ethyl)amino)methyl)-2-oxooxazolidin-3-yl)-2H-pyrido[3,2-b][1,4]oxazin-3(4H)-one]	1 (≈ 2.13 µM)	–	–	4.92	0.5 (≈ 1.07 µM)	2 (≈ 4.26 µM)	16 (≈ 34.1 µM)	0.5 (≈ 1.07 µM)	0.25 (≈ 0.533 µM)
Cn1c(=O)cnc2ccc(F)c(CCNC[C@@H]3CN(c4ccc5c(n4)NC(=O)CO5)C(=O)O3)c21 [Example 5, (R)-6-(5-(((2-(6-fluoro-4-methyl-3-oxo-3,4-dihydroquinoxalin-5-yl)ethyl)amino)methyl)-2-oxooxazolidin-3-yl)-2H-pyrido[3,2-b][1,4]oxazin-3(4H)-one]	0.03 (≈ 0.064 µM)	–	–	4.85	0.015 (≈ 0.032 µM)	0.125 (≈ 0.267 µM)	1 (≈ 2.13 µM)	0.06 (≈ 0.128 µM)	0.25 (≈ 0.534 µM)
Cn1c(=O)cc(CO)c2ccc(F)c(CCNC[C@H]3CN(c4ccc5c(n4)NC(=O)CO5)C(=O)O3)c21 [Example 12, (S)-6-(5-(((2-(7-fluoro-4-(hydroxymethyl)-1-methyl-2-oxo-1,2-dihydroquinolin-8-yl)ethyl)amino)methyl)-2-oxooxazolidin-3-yl)-2H-pyrido[3,2-b][1,4]oxazin-3(4H)-one]	1 (≈ 2.01 µM)	> 7.00	6.75	–	0.25 (≈ 0.503 µM)	0.5 (≈ 1.01 µM)	1 (≈ 2.01 µM)	0.25 (≈ 0.503 µM)	0.5 (≈ 1.01 µM)
Cn1c(=O)cnc2ccc(F)c(CCNC[C@H]3CN(c4cnc5c(n4)NC(=O)CO5)C(=O)O3)c21 [Example 30, (S)-6-(5-(((2-(6-fluoro-4-methyl-3-oxo-3,4-dihydroquinoxalin-5-yl)ethyl)amino)methyl)-2-oxooxazolidin-3-yl)-2H-pyrazino[2,3-b][1,4]oxazin-3(4H)-one]	0.06 (≈ 0.128 µM)	–	–	–	0.03 (≈ 0.0639 µM)	0.06 (≈ 0.128 µM)	0.25 (≈ 0.533 µM)	0.06 (≈ 0.128 µM)	0.125 (≈ 0.266 µM)
CN1C(=O)CCc2ccc(F)c(CCNC[C@H]3CN(c4ccc5c(n4)NC(=O)CO5)C(=O)O3)c21 [Example 2, (S)-6-(5-(((2-(7-fluoro-1-methyl-2-oxo-1,2,3,4-tetrahydroquinolin-8-yl)ethyl)amino)methyl)-2-oxooxazolidin-3-yl)-2H-pyrido[3,2-b][1,4]oxazin-3(4H)-one]	0.125 (≈ 0.266 µM)	–	–	–	0.125 (≈ 0.266 µM)	0.25 (≈ 0.533 µM)	4 (≈ 8.52 µM)	0.125 (≈ 0.266 µM)	1 (≈ 2.13 µM)
Cn1c(=O)ccc2ncc(F)c(CCCNCC3CN(c4ccc5c(n4)NC(=O)CO5)C(=O)O3)c21 (racemic) [Example 1, 6-(5-(((3-(3-fluoro-5-methyl-6-oxo-5,6-dihydro-1,5-naphthyridin-4-yl)propyl)amino)methyl)-2-oxooxazolidin-3-yl)-2H-pyrido[3,2-b][1,4]oxazin-3(4H)-one]	< 0.5	–	–	–	< 4	< 1	< 16	< 0.5	< 4
CCn1c(=O)ccc2ccc(F)c(CCNCC[C@H]3CN(c4cnc5c(n4)NC(=O)CO5)C(=O)O3)c21 [Example 27, (S)-6-(5-(2-((2-(1-ethyl-7-fluoro-2-oxo-1,2-dihydroquinolin-8-yl)ethyl)amino)ethyl)-2-oxooxazolidin-3-yl)-2H-pyrazino[2,3-b][1,4]oxazin-3(4H)-one]	0.06 (≈ 0.121 µM)	–	–	–	0.015 (≈ 0.0302 µM)	0.125 (≈ 0.252 µM)	0.5 (≈ 1.01 µM)	0.03 (≈ 0.0604 µM)	0.06 (≈ 0.121 µM)
COCCn1c(=O)ccc2ccc(F)c(CCNC[C@H]3CN(c4cnc5c(n4)NC(=O)CO5)C(=O)O3)c21 [Example 21, (S)-6-(5-(((2-(7-fluoro-1-(2-methoxyethyl)-2-oxo-1,2-dihydroquinolin-8-yl)ethyl)amino)methyl)-2-oxooxazolidin-3-yl)-2H-pyrazino[2,3-b][1,4]oxazin-3(4H)-one]	0.125 (≈ 0.244 µM)	–	–	–	0.015 (≈ 0.0293 µM)	0.125 (≈ 0.244 µM)	1 (≈ 1.95 µM)	0.06 (≈ 0.117 µM)	0.25 (≈ 0.488 µM)
